Biological target: human GPR40 (Homo sapiens, UniProt O14842)
Experiment: Inositol Phosphate Turnover (IP1) Assay 2
Assay type: cell-based
Set-up: expressed in transfected cells
Conditions: HEK cells stably expressing human GPR40, Table 2, read-out: Human IP1
Protocol: Human and mouse GPR40 stable cell-lines were generated in CHO cells stably expressing NFAT BLA (Beta-lactamase). A human GPR40 stable cell-line was generated in HEK cells stably expressing the aequorin expressing reporter. The expression plasmids were transfected using lipofectamine (Life Technologies) following manufacturer's instructions. Stable cell-lines were generated following drug selection.
The assay is performed in 384-well format. HEK cells stably expressing human GPR40 are plated at 15,000 cells per well in growth medium (DMEM/10% fetal calf serum). Cell plates are then incubated 16 hours at 37 degrees in a 5% CO2 incubator.
Measurement of Inositol Phosphate Turnover (IP1) is performed using the CisBio IP-One kit (Part number 62IPAPEB). After the 16 hour incubation, the cells are washed with HEPES buffer and 10 ul of stimulation buffer (prepared as described in the kit) is added to each well. In a separate plate, compounds are diluted in DMSO (400-fold over the final concentration in the assay well) and 25 nl is acoustically transferred to the appropriate well in the assay cell plate. The plates are then incubated for 60 minutes at 37 degrees. 10 ul of detection buffer (also prepared as described in the IP-One kit) is added to each well and the plates are incubated for 60 minutes in the dark. The plates are then read in a Perkin Elmer EnVision or equivalent reader able to measure FRET.

Chain of human GPR40 (O14842 whole entry): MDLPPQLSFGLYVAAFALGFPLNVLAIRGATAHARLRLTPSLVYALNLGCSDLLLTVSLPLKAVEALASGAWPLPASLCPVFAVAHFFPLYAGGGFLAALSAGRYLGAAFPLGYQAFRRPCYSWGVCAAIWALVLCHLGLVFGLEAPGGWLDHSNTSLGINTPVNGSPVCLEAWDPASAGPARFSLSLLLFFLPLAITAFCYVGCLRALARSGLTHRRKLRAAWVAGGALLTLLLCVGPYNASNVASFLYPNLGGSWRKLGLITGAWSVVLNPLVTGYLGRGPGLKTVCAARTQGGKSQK

Structure (SMILES) | EC50 [nM]
COc1cc(-c2ccc(C3CCc4ccc([C@H](C5CC5)[C@H](C)C(=O)O)cc4O3)nc2)ccn1 (single isomer, unassigned) [Example 120b] | 1.9
COc1ccc(F)c(-c2ccc(C3CCc4ccc([C@@H](CC(=O)O)C5CC5)cc4O3)cn2)c1 (single isomer, unassigned) [Example 122a] | 88
COc1ccc(F)c(-c2ccc(C3CCc4ccc([C@@H](CC(=O)O)C5CC5)cc4O3)cn2)c1 (single isomer, unassigned) [Example 122b] | 244
COc1ccc(F)c(-c2cnc(C3CCc4ccc([C@H](C5CC5)C(C)C(=O)O)cc4O3)nc2)c1 (single isomer, unassigned) [Example 124a] | 51
COc1ccc(F)c(-c2cnc(C3CCc4ccc([C@H](C5CC5)C(C)C(=O)O)cc4O3)nc2)c1 (single isomer, unassigned) [Example 124b] | 70
COc1ccc(F)c(-c2ccc(C3CCc4ccc([C@@H](CC(=O)O)C5CC5)cc4O3)cc2C(OC)C(C)(C)C)c1 (single isomer, unassigned) [Example 125a] | 7.3
COc1ccc(F)c(-c2ccc(C3CCc4ccc([C@@H](CC(=O)O)C5CC5)cc4O3)cc2C(OC)C(C)(C)C)c1 (single isomer, unassigned) [Example 125b] | 8.6
COc1ccc(F)c(-c2ccc(C3CCc4ccc([C@@H](CC(=O)O)C5CC5)cc4O3)cc2C(OC)C(C)(C)C)c1 (single isomer, unassigned) [Example 125c] | 235
COc1ccc(F)c(-c2ccc(C3CCc4ccc([C@@H](CC(=O)O)C5CC5)cc4O3)cc2C(OC)C(C)(C)C)c1 (single isomer, unassigned) [Example 125d] | 256
COc1ccc(F)c(-c2ccc(C3CCc4ccc([C@H](C5CC5)[C@H](C)C(=O)O)cc4O3)nc2C(OC)C(C)(C)C)c1 (single isomer, unassigned) [Example 135a] | 0.8
COc1ccc(F)c(-c2ccc(C3CCc4ccc([C@H](C5CC5)[C@H](C)C(=O)O)cc4O3)nc2C(OC)C(C)(C)C)c1 (single isomer, unassigned) [Example 135b] | 21
COc1ccc(F)c(-c2ccc(C3CCc4ccc([C@H](C5CC5)[C@H](C)C(=O)O)cc4O3)nc2C(OC)C(C)(C)C)c1 (single isomer, unassigned) [Example 135c] | 2.8
COc1ccc(F)c(-c2ccc(C3CCc4ccc([C@H](C5CC5)[C@H](C)C(=O)O)cc4O3)nc2C(OC)C(C)(C)C)c1 (single isomer, unassigned) [Example 135d] | 44
COc1ccc(F)c(-c2ccc(C3CCc4ccc(C(C)CC(=O)O)cc4O3)cc2)c1 (single isomer, unassigned) [Example 138, (S or R)-3-((R or S)-2-(2′-fluoro-5′-methoxy-[1,1′-biphenyl]-4-yl)chroman-7-yl)butanoic acid] | 1200
COc1ccc(F)c(-c2ccc(C3CCc4ccc(C(C)CC(=O)O)cc4O3)cc2)c1 (single isomer, unassigned) [Example 139] | 116
COc1ccc(F)c(-c2ccc(C3CCc4ccc(C(C)CC(=O)O)cc4O3)cc2)c1 (single isomer, unassigned) [Example 140] | 1230
COc1ccc(F)c(-c2ccc(C3CCc4ccc(C(C)CC(=O)O)cc4O3)cc2)c1 (single isomer, unassigned) [Example 141] | 354
COc1ccc(F)c(-c2ccc(C3CCc4ccc(C(C)C(C)C(=O)O)cc4O3)cc2)c1 (single isomer, unassigned) [Example 142] | 13
COc1ccc(F)c(-c2ccc(C3CCc4ccc(C(C)C(C)C(=O)O)cc4O3)cc2)c1 (single isomer, unassigned) [Example 143] | 252
COc1ccc(F)c(-c2ccc(C3CCc4ccc(C(C)C(C)C(=O)O)cc4O3)cc2)c1 (single isomer, unassigned) [Example 144] | 1420
COc1ccc(F)c(-c2ccc(C3CCc4ccc(C(C)C(C)C(=O)O)cc4O3)cc2)c1 (single isomer, unassigned) [Example 145] | 77
